These are literature values, as cited in patent US20240350389A1, “METHOD FOR DYEING KERATINOUS MATERIAL, IN PARTICULAR HUMAN HAIR” (HENKEL AG & CO. KGAA, priority 2021, published 2024).

For this data set the following is noted: 25° C.

For `CCN(Cc1cccc(S(=O)(=O)[O-])c1)c1ccc(C(=C2C=CC(=[N+](CC)Cc3cccc(S(=O)(=O)[O-])c3)C=C2)c2ccccc2S(=O)(=O)[O-])cc1.[Na+].[Na+]` [Acid Blue 9], the water solubility result is on record as “more than 20 wt %”.

Take `Nc1cc(S(=O)(=O)[O-])cc2cc(S(=O)(=O)[O-])c(N=Nc3ccccc3)c(O)c12.[Na+].[Na+]` [Acid Red 33, disodium salt of 5-amino4-hydroxy-3-(phenylazo)-naphthalene2,7-disulfonate]: the solubility in water was 2500 µg/mL.

With `O=[N+]([O-])c1cc([N+](=O)[O-])c2ccc(S(=O)(=O)O)cc2c1O.[Na].[Na]` [Acid yellow 1, 8-hydroxy-5,7-dinitro-2-naphthalenesulfonic acid disodium], the solubility in water result is “at least 40 g/L”.

Turning to `O=S(=O)([O-])c1ccc(N=Nc2c(O)ccc3ccccc23)cc1.[Na+]` [Acid Orange 7, sodium salt of 4-[(2-hydroxy-1-naphthyl)azo]benzene sulfonate], the solubility in water entry is on record as “more than 7 g/L”.
